{"source": "patent US8772493B2", "about": "“Compounds having auditory protective effect” (Ajou University Industry-Academic Cooperation Foundation, priority 2010, dated 2014)", "key": {"rat hearing": {"system": "rat hearing", "assay": "Auditory brainstem responses after transtympanic injection in rat", "format": "in vivo, Sprague-Dawley rats", "conditions": "rat ears pretreated with transtympanic compound (2 mM), then cisplatin", "experimental": "Sixteen female Sprague-Dawley rats (Samtaco, Osan, Korea) weighing between 180 and 220 g were used. After transportation, the animals were maintained in the central animal laboratory for at least 1 week. The animals were housed in independently ventilated cages and were allowed free access to water and food. The temperature was maintained at 21±1° C., and the lights were turned on from 8:00 AM to 8:00 PM. Rats with an inner ear infection were not used. This study was approved by the Committee for Ethics in Animal Experiments of the Ajou University School of Medicine.\nAnimals were sedated using an intraperitoneal (IP) injection of 3.125 mg/kg xylazine, 3.125 mg/kg zolazepam and 11.5 mg/kg xylazine. The rats were divided into two groups after baseline auditory brainstem response (ABR) testing was performed. […] The control group (four rats, eight ears) received transtympanic saline in both ears followed by IP saline (16 mL/kg by IP infusion). […] Posttreatment ABR was obtained on day 14.\nPreyer's reflex and otoscopy were used to confirm that the middle ears were normal. The rats were anaesthetized using an IP injection of 3.125 mg/kg zolazepam and 11.5 mg/kg xylazine. Subdermal sterile stainless steel electrode needles were attached, with the active lead at the vertex that referred to a second electrode located at the tip of the nose. The grounding electrode was placed on the front paw muscles. […]"}, "HEI-OC1 [1]": {"system": "HEI-OC1", "assay": "TUNEL assay", "format": "cell-based", "conditions": "compound alone", "description": "3×10^5 cells were seeded on the 6-well, incubated, then starved for 24 hours, and treated with the drug of the present invention by conditions, and then incubated for 24 hours. The cells were fixed with addition of 4% paraformaldehyde at normal temperature for 30 minutes, then washed two times with PBS, and treated with the permeablilization solution comprising 0.1% Triton X-100 at normal temperature for 10 minutes. The cells were washed again two times with PBS, and after adding terminal deoxynucleotidyl transferase (TDT) and nucleotide mixture, incubated for one hour with blocking out the light at 37° C. After washing two times with PBS, the apoptosis of cells was examined under fluorescence microscope. For control staining of cells without apoptosis, 4,6-diamino-2-phenylindole (DAPI, Sigma) solution was used. The stained cells were analyzed using a fluorescence microscope (Carl Zeiss, Oberkochen, Germany). TUNEL-positive cells were manually counted under a 200× magnification field in triplicate."}, "HEI-OC1 [2]": {"system": "HEI-OC1", "assay": "MTT assay in auditory cells HEI-OC1", "format": "cell-based", "description": "(§1) HEI-OC1 and UB-OC1 as auditory cells were subjected to MTT assay. Auditory cell lines were seeded on a 96-well plate in the ratio of 2×10^3 cells/well, and then cultured in an incubator under the condition of 37° C., 5% CO2 for 2 days. The compounds of Examples 1 and 2 were used at various concentrations with operating 5 runs for each sample, and then cultured in the incubator for 16 hours. The plate was treated with 1 mg/ml MTT solution per well, and then cultured in the incubator for 4 hours. Then, 100 μl DMSO per well was used to dissolve formazan, and the optical density of formazan as dissolved was measured at 540 nm."}, "UB-OC1": {"system": "UB-OC1", "assay": "MTT assay in auditory cells UB-OC1", "format": "cell-based", "conditions": "UB-OC1, 50 of cisplatin", "description": "as §1"}, "HEI-OC1 [3]": {"system": "HEI-OC1", "assay": "Measurement of mitochondrial membrane potential (MMP), JC-1", "format": "cell-based", "conditions": "cisplatin alone", "description": "The mitochondrial membrane potential (MMP) was measured using 5,5V,6,6V-tetrachloro-1,1V,3,3V-tetraethylbenzimidazolcarbocyanine iodide (JC-1; Molecular Probes) as a lipophilic cationic probe.\nJC-1 is a fluorescent dye which is accumulated by mitochondria in its inside. If the function of mitochondria is normal, MMP is high and mitochondria are predominantly red. Then, if mitochondria are damaged, MMP is reduced and mitochondria are changed into green."}, "auditory cells": {"system": "auditory cells", "assay": "FACScan with Annexin-V and PI double staining", "format": "cell-based", "conditions": "50 μM of cisplatin", "description": "The degree of apoptosis was analyzed with Annexin V-FITC Apoptosis Detection kit I (BD Biosciences, San Diego, Calif.). 3×10^5 cells were seeded on 60 mm dish, incubated, then starved for 24 hours, and treated with the compounds of Examples 1 and 2 by conditions and incubated for 24 hours. After removing the culture solution, the cells were washed two times with PBS, and suspended in the binding buffer in the ratio of 1×10^6 cells/ml. 100 μl of this solution was transferred to 5 ml tube, and after addition of 5 μl of Annexin V-FITC to the tube, well mixed together, and then reacted for about 15 minutes in the dark place. Then, 400 μl of the binding buffer was added, and the cells were counted until 10,000 cells were on Becton Dicki nson FACSscan (Lysis II Ver. 1.0). The degree of apoptosis was measured depending on the expression of Annexin V-FITC from the result of FACScan flowcytometry. In addition, the degree of apoptosis was also measured under fluorescence microscope."}, "zebrafish neuromast [4]": {"system": "zebrafish neuromast", "assay": "Observation of zebrafish neuromast using fluorescent microscope (Yo-Pro-1)", "format": "in vivo, Danio rerio", "conditions": "zebrafish 4th day", "description": "When embryo of zebrafish (Danio rerio) wild type is on the 4th day, the drugs (compounds of Examples 1 and 2) were added to 2 ml of embryo media in 6 well, and then 5 embryos were added to each group and reacted with the drug in the incubator maintained at 28.5° C. for one hour. After reaction, embryos were washed three times with embryo media, and then placed in clean embryo media for 3 hours. After 3 hours, […] of Yo-Pro-1 (molecular probes, Oregon U.S.A) was added to embryo media, and then reacted for one hour in the place with blocking the light. After reaction, embryos were washed again three times with clean embryo media, and anesthetized with 8 μg/ml of MS222 (3-aminobenzoic aid ethyl ester, methanesulfonate salt, Sigma Chemical CO, St Louis, U.S.A) anesthetic."}, "HEI-OC1 cells [5]": {"system": "HEI-OC1 cells", "assay": "Measurement of intracellular ROS generation (DCFDA)", "format": "cell-based", "conditions": "cisplatin, time-dependent", "description": "Intracellular generation of ROS was quantified using 5-(and 6)-carboxyl-20,70-dichlorodihydro fluorescein diacetate (DCFDA; Molecular Probes, Eugene, Oreg., USA). […] ROS generation at various time points was checked and the amount of ROS generation was the highest at 16 h. Therefore, 16 h as the time point for ROS detection was chosen for subsequent experiments. Cells were incubated in the dark with 10 μM DCFDA in serum-free medium for 10 min at 33° C. The oxidative burst (hydrogen peroxide, H2O2) was detected using a FACScan flow cytometer (Becton Dickinson, Franklin Lakes, N.J., USA) with excitation and emission settings at 488 and 530 nm, respectively."}, "rat cochlea": {"system": "rat cochlea", "assay": "Tissue TUNEL assay of rat cochlea", "format": "in vivo", "conditions": "cisplatin only", "description": "Animals were sedated using an intraperitoneal (IP) injection of 3.125 mg/kg xylazine, 3.125 mg/kg zolazepam and […]. The rats were divided into two groups after baseline auditory brainstem response (ABR) testing was performed. […] The control group (four rats, eight ears) received transtympanic saline in both ears followed by IP saline (16 mL/kg by IP infusion). The compound of Example 2 only group (four rats, eight ears) received transtympanic the compound of Example 2 in both ears followed by IP saline (16 mL/kg by IP infusion). On days 2 to 5, daily transtympanic injections of either 2 mM the compound of Example 2 or saline were continued. Posttreatment ABR was obtained on day 14.\nAfter fixation by intralabyrinthine perfusion of 4% paraformaldehyde (pH 7.4), the cochleae were removed and then were incubated in the same fixative overnight. Decalcification was performed in ethylenediamine tetraacetic acid solution (EDTA) (10% in PBS) for 3-4 weeks. Subsequently, the tissues were embedded in paraffin.\nOrgan of Corti explants were each fixed for 15 min in 3.7% (v/v) formaldehyde in PBS at room temperature. Each explant was rinsed with PBS and incubated in proteinase K diluted from the TUNEL kit for 15 min at room temperature. […] Each explant was washed twice with PBS and examined using a fluorescence microscope."}, "HEI-OC1 cells [6]": {"system": "HEI-OC1 cells", "assay": "Cell cycle analysis using FACScan", "format": "cell-based", "conditions": "cisplatin alone", "description": "The cells were treated with trypsin, washed with PBS, and then stained with a dye (5 mg/ml propidium iodide, 20 mg/ml RNase A) in a dark room at normal temperature for 15 minutes. The stained cells were analyzed with a flow cytometry cell sorter (Becton Dickinson)."}, "[7]": {"system": "JNK, p38, cleaved caspase 3, PARP in HEI-OC1", "assay": "Western blotting of apoptosis-related proteins", "format": "cell-based", "conditions": "cisplatin alone"}, "zebrafish neuromast [8]": {"system": "zebrafish neuromast", "assay": "Scanning and transmission electron microscopy of zebrafish neuromast", "format": "in vivo, Danio rerio", "conditions": "50 μM cisplatin", "from_the_text": "They were dried with a drier, treated with an evaporator (MED010; Baltec, Hudson, N.H.), and then observed using a scanning microscope (JSM-6700F JEOL, Tokyo, Japan).\nLarvae were cut in the direction from head to tail, sliced to a thickness of […], and then stained with 1% toluidine blue. They were divided into ultrathin sections (90 nm) using Ultracut S microtome (Leica, Wetzlar, Germany), mounted on 200-mesh Athene thin bar-grids, treated with uranyl acetate and lead citrate, and then observed using s transmission electron microscope (EM 902A Carl Zeiss)."}}}
{"smiles": "NC1(c2ccc(F)cc2)C(=O)Nc2cccc(F)c2C1=O", "note": "(stereo not drawn) [Example 2, 3-amino-5-fluoro-3-(4-fluorophenyl)quinolin-2,4(1H,3H)-dione]", "values": [{"measurement": "average click-evoked ABR threshold shift", "setting": "rat hearing", "result": "38.5±11.3", "unit": "dB"}, {"measurement": "click-evoked ABR threshold shift, range", "setting": "rat hearing", "result": "27-49 dB"}, {"measurement": "apoptosis (TUNEL positive cells) on administration of compound alone", "setting": "HEI-OC1 [1]", "result": "did not cause apoptosis"}, {"measurement": "cytotoxicity in auditory hair cells (MTT)", "setting": "HEI-OC1 [2]; HEI-OC1, compound alone, up to elevated dose of 200", "result": "substantially same result"}]}
{"smiles": "N.N.[Cl][Pt][Cl]", "note": "[cisplatin, reference compound]", "values": [{"measurement": "auditory hair cells killed by cisplatin (MTT)", "setting": "UB-OC1", "result": "about 50%"}, {"measurement": "mitochondrial membrane potential (JC-1 fluorescence)", "setting": "HEI-OC1 [3]", "result": "changed into green fluorescence"}, {"measurement": "apoptosis (annexin/PI FACS)", "setting": "auditory cells", "result": "increased"}, {"measurement": "reduction of neuromast", "setting": "zebrafish neuromast [4]; 50 μM cisplatin", "result": "≥ 70", "unit": "%"}, {"measurement": "neuromast", "setting": "zebrafish neuromast [4]; 100 μM cisplatin", "result": "substantially all of neuromast was disappeared"}, {"measurement": "generation of intracellular ROS", "setting": "HEI-OC1 cells [5]", "result": "significantly increased"}, {"measurement": "TUNEL positive cells in cochlea versus control group", "setting": "rat cochlea", "result": "more numerous"}, {"measurement": "auditory hair cells killed by cisplatin (MTT)", "setting": "HEI-OC1 [2]; HEI-OC1, 50 of cisplatin", "result": "about 50%"}, {"measurement": "sub G1 related to apoptosis", "setting": "HEI-OC1 cells [6]", "result": "increase"}, {"measurement": "JNK, p38, cleaved caspase 3, PARP", "setting": "[7]", "result": "increased"}, {"measurement": "kinocilium of auditory cells of neuromast (SEM, TEM)", "setting": "zebrafish neuromast [8]", "result": "markedly damaged or mostly disappeared or fused"}]}
